Measured values as given in patent US10829441B2, “Reactive oxygen species-sensitive nitric oxide synthase inhibitors for the treatment of ischemic stroke” (The University of Toledo, priority 2017, dated 2020).
Where “and” joins values, the source holds several entries; their conditions need not be identical. Identical values can stand only once. Entries after “also recorded” stand apart in the source; their conditions may differ.

How the values were obtained:
[1] = system: LPS-stimulated SIM-A9 cells; assay: Griess assay of nitrite in LPS-stimulated SIM-A9 microglia; format: cell-based, mouse; details: LPS 100 ng/mL; for nitrite / NO production after LPS (in words): 1.0 μM to 50 μM, 24 hr (FIG. 14); for nitrite after LPS (in words): 24 hr (FIG. 15B); for decrease in nitrite: 24 hr
Description: (§1) Human neuroblastoma SH-SY5Y cells and SIM-A9 mouse microglia (ATCC) were separately cultured on poly-D-lysine coated plates in 1:1 Dulbecco's Modified Eagle Medium/Ham's F12 (DMEM/F12) medium containing 5% fetal bovine serum, 5% horse serum, and penicillin-streptomycin. Cultures were stored in a 37° C. incubator with a 5% CO2 atmosphere. Cells were allowed to adhere overnight prior to subjection to experimental systems. 1×10^6 cells SH-SY5Y cells on 96-well plates were used for OGD experiments, and SIM-A9 cells were plated at a density of 1×10^6 on 24-well plates for Griess experiments.
SIM-A9 cells were treated with 100 ng/mL lipopolysaccharide (LPS, Sigma) along with vehicle or drug treatment for 24 hr. Conditioned medium was then diluted 1:1 with griess reagent (0.4% naphthylethylenediamine dihydro-chloride, and 4% sulphanilamide in 10% phosphoric acid), and analyzed by colorimetry at 540 nm after […]. Nitrite levels were reported as a ratio to LPS-treated, vehicle control.

[2] = system: phospho-Akt/total Akt ratio; assay: Western blot of SH-SY5Y cells exposed to OGD: pAkt/Akt; format: cell-based, Human; details: 1.0 μM, 24 hr treatment
3-Nitrotyrosine (3-NT) = assay: Western blot of SH-SY5Y cells exposed to OGD: 3-nitrotyrosine; format: cell-based, Human; details: 1.0 μM, 24 hr treatment, vs vehicle
[3] = HPLC-PDA analysis of nitrone decomposition in radical-generating systems; format: physicochemical; details: for decomposition to aldehyde in .OH (Fe—H2O2) system (in words) / decomposition to aldehyde in O2.^−/HO2. (KO2) system (in words) / decomposition to aldehyde in ONOO^−/HCl system (in words): 24 hr incubation at 37° C.
Description: To a stirring solution of 5 (5.0 mg, 1.0 eq) in 785 μL PBS was added 20 μL 6 N HCl at 37° C. Peroxynitrite (200 μL of a 50 mM solution in 0.3 M NaOH, 0.5 eq) was added in 50 μL aliquots over 5 min. The reaction was allowed to stir for 1 hr and monitored by HPLC-PDA. The solution was extracted with CH2Cl2 (2×0.5 mL) and the aqueous fractions were pooled then lyophilized. Addition of ACN (1.0 mL) to the white solid followed by filtration allowed separation from the insoluble salts. Lyophilization afforded 6 as a white solid (1.2 mg, 33.7%), NMR (CD3OD, 400 MHz): δ 10.04 (1H, s), δ 7.93-7.95 (2H, m), δ 7.71-7.65 (2H, m), 4.58 (2H, s), δ 2.30 (3H, s).
EPR spectra were collected at ambient temperature with microwave power 12.6 mW, frequency 9.86 GHz, receiver gain 1.0×10^5 or 1.0×10^4, modulation amplitude 1 G, scan time 20.48 sec, time constant 40.96 msec, and sweep width 120 G. Phosphate buffered saline (PBS) used for EPR was supplemented with diethylenetriaminepent-acetic acid (DTPA, 100 μM). ROS-generating solutions were rapidly added to solutions of indicated spin trap and taken up in 50 μL glass capillary tubes for EPR spectral acquisition. For HPLC-PDA analysis, solutions were allowed to incubate for 24 hr at 37° C., then diluted 1:1000 in 95:5 mobile phase A:B, and analyzed as above. Benzaldehyde (Sigma) was run separately as a control to compare to PBN-ROS systems and confirm PBN decomposition.
A 50 μL final 20% PBS/DMSO solution of 35 mM 5 or PBN contained 10 μL saturated KO2 DMSO.
A 50 μL final 30% PBS/DMSO solution of 35 mM 5 or PBN contained 90 mM FeSO4 and 1% H2O2.
A solution of ONOO^− in 0.3 M NaOH (Cayman Chemical) was determined to be 50 mM by absorbance at 302 nm using the literature extinction coefficient (1670 M^−1cm^−1). A 50 μL final 30% PBS/DMSO solution of 5 or PBN contained 10 mM ONOO^− at pH˜6 (HCl).

cleaved caspase-3 = assay: Western blot of SH-SY5Y cells exposed to OGD: cleaved caspase-3; format: cell-based, Human; details: 1.0 μM, 24 hr treatment, vs vehicle
SH-SY5Y cells [4] = assay: OGD-induced formation of 6 from 5 in SH-SY5Y cells by LC-MS/MS; format: cell-based, Human; details: for level of 6 as 6:5 AUC: cell lysate (intracellular); for level of 6: supernatant
Description: (§2) Growth medium was removed from SH-SY5Y cells and replaced with sterile HBSS (140 mM NaCl, 3.5 mM KCl, 0.4 mM KH2PO4, 5 mM NaHCO3, 1.3 mM CaCl2, 1.2 mM MgSO4, 20 mM HEPES, pH 7.4, bubbled with 95%/5% N2/CO2), and placed in an air-tight container subsequently purged three times with 95%/5% N2/CO2. The container was then placed in a 37° C. incubator for 1.5 hr. After OGD, the cells were returned to a normoxic environment, and medium was replaced with growth medium and vehicle or treatment for 24 hr to simulate reperfusion. Sham cells were left in growth medium under a normoxic environment. Viability was measured by adding 10% Presto-Blue® Cell Viability Reagent (Thermo Fisher) for 30 min, and reading fluorescence at 560 nm/590 nm excitation/emission. Viability is reported as a ratio to vehicle-treated control, and readings result from separate OGD experiments (e.g. n=6 was from 6 different OGD assays). The experimental furoxan IS-1-41 was used as a positive control for OGD viability due to its reproducible protection in this paradigm.
(§3) Synthesized 5, and purchased 4(1H-Imidazol-1-yl)benzaldehyde (IBA, Sigma) were used to determine LC-MS/MS fragmentation. A solution of 5+ONOO^−/HCl from EPR studies was used for 6 fragmentation. MRM analysis of IBA (m/z 173.10→91.10, 104.10, 117.05; RT: 4.13 min), 5 (m/z 248.20→148.00, 134.15, 190.05; RT: 4.81 min), and 6 (m/z 177.00→119.10, 90.95, 65.15; RT: 3.87 min) were determined. A standard curve for 5 was generated using pure samples applied to blank matrix (0.01 μM, 0.1 μM, 0.5 μM, 1.0 μM, and 5.0 μM; R2=0.99) using the above HPLC solvents and LC curve at 0.4 mL/min.
(§4) In vitro supernatant samples were spiked with internal standard (200 μL 500 nM IBA in 2% FA) and used as collected, while cells were detached by trypsin, centrifuged (14 k rpm, 5 min, 4° C.) to isolate the pellet, then lysed by sonication (Sonic Dismembrator 500, Fisher) in 1 mL cold PBS+internal standard. Blood samples (100 μL) were spiked with internal standard, and centrifuged to collect the supernatant. Brain samples were weighed, homogenized by a Bullet Blender Storm (Next Advance Inc.) in 500 μL cold PBS+internal standard for 1 min at 4° C., then centrifuged to collect the supernatant. All samples were then worked up by solid phase extraction (Evolute Ex-press ABN cartridge, 30 mg/l mL, Biotage) using a Vac-master manifold (Biotage). Columns were washed with dH2O (1 mL), and analytes were eluted with MeOH (1 mL) and evaporated to dryness by high flow air purge. Samples were reconstituted in 200 μL 95:5 mobile phase A:B and analyzed by LC-MS/MS (2.0 μL injection volume). All samples were run in duplicate, and AUC for 5 and 6 were normalized to the intra-run IBA AUC to account for loss during workup. 5 concentrations were determined using std. curve, while 6 was expressed as a percentage of 5 AUC.

SH-SY5Y cells [5] = assay: Oxygen-glucose deprivation (OGD) viability of SH-SY5Y cells (PrestoBlue); format: cell-based, Human; details: for viability, ratio to vehicle control / viability relative to vehicle (in words): 1.5 hr OGD, 24 hr treatment
Description: as §1, §2

[6] = Plasma and brain levels of 5 and 6 by LC-MS/MS 25 min after intravenous administration; format: in vivo, C57BL/6 mice
Description: (§5) Animals were anesthetized and the incision was performed as above to expose the temporal bone, through which the MCA was visible. The end of a fiber optic cable fitted to a MoorVMS-LDF Laser Doppler Monitor (Moor Instruments) was positioned in place over the MCA. The baseline CBF as flux was monitored for 5 min prior to intravenous injection by lateral tail vein of normal saline vehicle, […] (20 mg/kg), or 5. Measurements were taken every 5 minutes in triplicate for each animal, and reported as ratio to baseline. Animals were sacrificed at 25 min by CO2 inhalation, blood was collected into K2EDTA coated tubes (BD Microtainer®), and brains were rapidly dissected out and frozen on dry ice for LC-MS/MS analysis.
as §3, §4

[7] = system: permanent MCA occlusion (pMCAO); format: in vivo
[8] = system: cerebral blood flow (CBF); assay: Laser Doppler cerebral blood flow (CBF) over the MCA of anesthetized mice; format: in vivo, C57BL/6 mice; details: for time point at which CBF increased: isoamyl nitrate vs low dose of 5 (1 mg/kg), intravenous
Description: as §5

[9] = 25 min after intravenous 5, n=6

CC(=N)NCc1cccc(CN)c1 [1400W, reference compound]
nitrite / NO production after LPS (in words) [1]: anti-inflammatory ability | nitrite after LPS (in words) ([1]; 1.0 μM): attenuated

CC(=N)NCc1cccc(/C=[N+](\[O-])C(C)(C)C)c1 [compound 5, N-tert-butyl-α-(3-[ethanimidamidomethyl]phenyl)nitrone]
phospho-Akt/total Akt ratio ([2]; vs vehicle): 4.1 times higher | 3-NT ameliorated (3-Nitrotyrosine (3-NT)): 48% | conversion of 5 to 6 by HPLC-PDA ([3]; 0.50 eq ONOO^−, PBS/HCl pH 6, 37° C., after one hour): 95.4% | decomposition to aldehyde in .OH (Fe—H2O2) system (in words) [3]: substantial formation of 6; also recorded: Minor 6 formation | decomposition to aldehyde in O2.^−/HO2. (KO2) system (in words) [3]: substantial formation of 6; also recorded: significant 6 formation | decomposition to aldehyde in ONOO^−/HCl system (in words) [3]: complete conversion; also recorded: no observed 5 remaining | nitrite / NO production after LPS (in words) [1]: not observed to lower NO production | nitrite after LPS (in words) ([1]; 1.0 μM): attenuated | cleaved caspase-3 reduction (cleaved caspase-3): 47% | cell permeability (in words) (SH-SY5Y cells [4]): cell permeable | viability, ratio to vehicle control (SH-SY5Y cells [5]; 0.1 μM): 1.21 times greater than vehicle | viability, ratio to vehicle control (SH-SY5Y cells [5]; 1.0 μM): 2.57 times greater than vehicle | viability relative to vehicle (in words) (SH-SY5Y cells [5]; 100 μM): decline to baseline; also recorded: not observed to be toxic, but rather non-neuroprotective | optimal dose (highest neuroprotection) (SH-SY5Y cells [5]; dose-finding study 0.05 μM to 100 μM): 1.0 µM | Kp at 25 min ([6]; C57BL/6, mouse, in vivo): 0.029 ± 0.01 | half-life (in words) ([6]; mouse, in vivo): short half-life | tolerability / adverse effects ([7]; 10 mg/kg and 1 mg/kg intravenous): well tolerated | forelimb grip strength (in words) ([7]; 24, 48, 72 hr after pMCAO): improved grip strength | rota rod performance (in words) ([7]; 24, 48, 72 hr after pMCAO): No significant differences | Neurological deficit scoring (NDS), 28-point system ([7]; 72 hr after pMCAO, 10 mg/kg iv at 3 and 6 hr, then 1 mg/kg twice daily): 4.2±0.4 | decrease in infarct volume compared to vehicle ([7]; TTC staining 72 hr after pMCAO, 10 mg/kg iv at 3 and 6 hr, then 1 mg/kg twice daily): > 30% and 37% | CBF over 20 min ([8]; 1 mg/kg intravenous): 126%±4.6% | CBF over 20 min ([8]; 10 mg/kg intravenous): 102%±0.7% | time point at which CBF increased [8]: 5 min

CC(C)(C)[N+]([O-])=Cc1ccccc1 [PBN, N-tert-butyl-α-phenylnitrone, reference compound]
phospho-Akt/total Akt ratio (in words) [2]: increase was also observed; also recorded: increase in Akt phosphorylation, although not significant | decomposition to aldehyde in .OH (Fe—H2O2) system (in words) [3]: minor formation | decomposition to aldehyde in O2.^−/HO2. (KO2) system (in words) [3]: Significant BnA formation | decomposition to aldehyde in ONOO^−/HCl system (in words) [3]: Significant BnA formation | nitrite / NO production after LPS (in words) [1]: not observed to cause a reduction in nitrate | nitrite after LPS (in words) ([1]; 1.0 μM): attenuated | viability relative to vehicle (in words) (SH-SY5Y cells [5]; 0.05 μM to 100 μM): did not approach significance at any concentration tested

CC(=N)NCc1cccc(C=O)c1 [compound 6, N-[(3-formylphenyl)methyl]ethanimidamide]
nitrite / NO production after LPS (in words) [1]: dose-dependent decrease in nitrite | decrease in nitrite ([1]; 1.0 μM): ~19% | decrease in nitrite ([1]; 50 μM): −33% | level of 6 as 6:5 AUC (SH-SY5Y cells [4]; OGD-exposed cells treated 24 hr with 10 μM 5): 129 % 6:5 AUC | level of 6 as 6:5 AUC (SH-SY5Y cells [4]; sham cells treated 24 hr with 10 μM 5): 29 % 6:5 AUC | level of 6 (SH-SY5Y cells [4]; OGD-exposed cells treated with 5): 18.6 % of 5 AUC | level of 6 (SH-SY5Y cells [4]; sham cells treated with 5): 7.88 % of 5 AUC | level of 6 in brain [6, 9]: 24.5%±0.1% | level of 6 in plasma [6, 9]: 12.7%±0.2%

CC(C)CCO[N+](=O)[O-] [isoamyl nitrate, reference compound]
CBF over 20 min ([8]; 20 mg/kg intravenous): 111%±4.0% | time point at which CBF increased [8]: 20 min
